{"source": "patent US7371780B2", "about": "“Use of calphostin C to treat drug-resistant tumor cells” (priority 2003, dated 2008)", "format_in_all_cases": "cell-based, human", "key": {"MCF-7 cells [1]": {"test_system": "MCF-7 cells", "test": "Clonogenic assay, MCF-7 cells", "details": "24 h drug, calphostin C light-activated 2 h, read-out: IC50 (concentration required to kill or inhibit the growth of 50% of cells)", "method": "The breast cancer cell line MCF-7 (lot HTB-22) was obtained from the American […] (ATCC) and maintained in Dulbecco's H21 medium (MEM) supplemented with 10% Fetal Bovine Serum (FBS) (HyClone, Logan, Utah) in a humidified atmosphere containing 5% CO2 at 37° C. To establish drug resistant cell lines, MCF-7 cells were grown in the presence of either paclitaxel or doxorubicin, beginning at a concentration 1000-fold below that required to kill 50% of the cells (the IC50). The drug concentration was increased 3-fold every two weeks (two passages), with an aliquot of the cells removed for storage in liquid nitrogen before each increase in concentration. Dose escalation continued until all cells died, after which the cells able to tolerate the highest concentration of drug were thawed for subsequent study. In this way, paclitaxel-resistant (MCF-7TAX) and doxorubicin-resistant (MCF-7DOX) cell lines were established. The IC50 for each drug was determined using a clonogenic assay as outlined below. The drug resistant cells were kept in culture in the presence of the maximally tolerated drug dose. Before each experiment, the cell lines were grown for two days in the absence of drug after which fresh medium containing either calphostin C (Sigma Laboratories, Oakville, ON), doxorubicin (Adriamycin PFS®, USP, Mississauga, ON) or paclitaxel (Taxol, Bristol-Myers Squibb, Montreal, QC) was added at the concentrations indicated.\nThe sensitivity of MCF-7, MCF-7TAX and MCF-7DOX cells to calphostin C, paclitaxel or doxorubicin was determined using a clonogenic assay. Briefly, 2.5×10^5 cells were seeded into 25 cm^2 tissue culture flasks in Dulbecco's H21 medium supplemented with 10% FBS. The cells were allowed to grow overnight, after which the medium was removed and replaced with medium containing varying concentrations of paclitaxel, doxorubicin, or calphostin C (after 2 hours of light exposure to activate the molecule). […] The colonies present in 5 randomly selected fields were then counted by visual inspection. […]"}, "MCF-7TAX cells": {"test_system": "MCF-7TAX cells", "test": "Drug uptake, MCF-7TAX", "method": "FIG. 5 illustrates the effect of calphostin C (Cal-C) on drug uptake in MCF-7 (square symbols), MCF-7TAX (diamond symbols) and MCF-7DOX (triangular symbols) cells. After one-day growth, the cells were left untreated (closed symbols) or treated with 100 nM calphostin C for 2 h with light activation (open symbols). Cells were then washed and the medium replaced with medium containing 2 μM of doxorubicin (A) or [^3H]-paclitaxel (B). The cells were then trypsinized and drug accumulation measured by flow cytometry (A) or liquid scintillation counting (B) at indicated time points. The figures are representative of three independent experiments."}, "MCF-7 cells [2]": {"test_system": "MCF-7 cells", "test": "Flow cytometric sub-G1 DNA content, MCF-7", "details": "100 nM calphostin C, 2 h light", "method": "For flow cytometric analysis, cells at about 50% to 60% confluence were released from their flasks by trypsin treatment and washed with PBS. After centrifugation at 1000 rpm for 5 min, cells were then fixed by resuspension in 75% ethanol for 2 hours, collected by centrifugation, and resuspended in PI staining solution (see above) for 1 h. For each sample, approximately 2×10^4 cells were analyzed using a Beckman Coulter Epics® Elite flow cytometer. Fluorescence intensity upon stimulation with an argon-ion laser at 488 nm was measured using the PMT4 channel (625DL filter) and plotted against cell number. The percentage of cells with a sub-G1 DNA content was determined by the flow cytometer, adjusting the gates such that only cells with a fluorescence lower than the peak for untreated cells in G1 are counted (see FIG. 4)."}}}
{"compound": "COc1c(C[C@@H](C)OC(=O)Oc2ccc(O)cc2)c2c3c(C[C@@H](C)OC(=O)c4ccccc4)c(OC)c(=O)c4c(O)cc(OC)c(c5c(OC)cc(O)c(c1=O)c52)c43", "note": "[calphostin C]", "values": [{"measurement": "IC50", "setting": "MCF-7 cells [1]", "result": 13.2, "unit": "nM"}, {"measurement": "effect on doxorubicin uptake", "setting": "MCF-7TAX cells; 100 nM calphostin C 2 h with light, then 2 μM doxorubicin", "result": "little ability to re-establish doxorubicin uptake"}, {"measurement": "effect on paclitaxel uptake", "setting": "MCF-7TAX cells; 100 nM calphostin C, early time points, back to control by 18 hours", "result": "slightly restored"}, {"measurement": "time of strong increase in percentage of sub-G1 cells after treatment", "setting": "MCF-7 cells [2]", "result": 8, "unit": "h"}]}
